According to patent US20080027098A1, “Derivatives of alpha-phenylthiocarboxylic and alpha-phenyloxy-carboxylic acids useful for the treatment of diseases responding to PPARalpha activation” (SIGMA-TAU INDUSTRIE FARMACEUTICHE RIUNITE S.p.A., priority 2002, published 2008):
Marks after values point to notes of the source that are not given here. Values belong to the molecule of their own block, whether it stands above or below them.

Experiments:
[1] = system: db/db mice; assay: Increase in HDL-cholesterol levels in db/db mice; type: in vivo
Description: Increase in HDL-Cholesterol Levels in db/db Mice
In this experiment db/db mice were used in which PPARα expression is above normal (Memon et al., Endocrinology 2000, 4021-4031) and HDL-cholesterol levels are substantially elevated (Silver et al., J Biol Chem 1999, 274: 4140-4146).
The C57BL[KsJ db/db mice were acclimatised for one week in standard conditions (22±2° C.; 55±15% humidity; 15-20 air changes/hour; 12 hours light/darkness cycle with light from 7.00 a.m. to 7 p.m.) with a standard 4 RF21 diet (Mucedola). Blood samples were taken in post-absorption conditions (fasting from 8.30 a.m. to 4.30 p.m.) from the caudal vein with the aid of a Jelco 22G catheter (Johnson and Johnson). Glucose, insulin, triglyceride, cholesterol, free fatty acid and urea levels were checked in plasma for a homogeneous distribution of the mice in the treatment groups.
At the beginning of treatment the animals' body weight was checked and arrangements were made to monitor their water and feed consumption. […]
The compound tested, obtained as described in example 4 (ST 1929) was administered at the dose of 24 mg/kg in 10 ml/kg of vehicle (1% CMC containing Tween 80 0.5% in deionized H2O).
The other compounds tested were also administered at a dose equivalent to that in example 4.
Ciprofibrate, a known PPARα agonist (Varanasi et al., J Biol Chem 1996, 271: 2147-2155; Latruffe et al. Cell Biochem Biophys 2000, 32 Spring: 213-220) was administered at the dose of 20 mg/kg (Dwivedi et al., Toxicol Pathol 1989, 17: 16-26; Qi et al., Proc Natl Acad Sci USA 1999, 96: 1585-1590).
The animals were sacrificed (by decapitation) in conditions of post-absorption (fasting from 9.30 a.m. to 4.30 p.m.) 7 hours after the last treatment. The levels of a number of important lipid and carbohydrate metabolism parameters were determined in the serum.
The HDL-cholesterol levels were measured by treating the serum with phosphotungstic-acid-based precipitating reagent (ABX Diagnostics) which removes the chylomicrons, very low density and low density lipoproteins and determining the HDL-cholesterol levels in the supernatant with the aid of the Cholesterol Kit (ABX Diagnostics) and the Cobas Mira S Autoanalyzer (Roche).
In a further experiment, where the above reported ST2195 was used as reference compound, db/db mice were treated orally twice daily (8.30 a.m. and 6.30 p.m.) for 14 days with the test items (equimolar to 25 mg/kg of ST2 195) giving the following results reported in Table 3: […]

[2] = molecular target: T1, Gal4DBD/PPARαLBD (Homo sapiens, UniProt Q07869); assay: Transient transfection of COS-7 cells, Gal4DBD/PPARαLBD transactivation, CAT reporter (II method); type: cell-based; conditions: read-out: percentage activation of the CAT reporter gene compared to reference compound WY-14.643 2 μM taken as 100%
T1 construct: expressed in transfected cells; host or cells: COS-7 (monkey kidney fibroblasts)
T1 sequence (Q07869 239-466 limits assumed): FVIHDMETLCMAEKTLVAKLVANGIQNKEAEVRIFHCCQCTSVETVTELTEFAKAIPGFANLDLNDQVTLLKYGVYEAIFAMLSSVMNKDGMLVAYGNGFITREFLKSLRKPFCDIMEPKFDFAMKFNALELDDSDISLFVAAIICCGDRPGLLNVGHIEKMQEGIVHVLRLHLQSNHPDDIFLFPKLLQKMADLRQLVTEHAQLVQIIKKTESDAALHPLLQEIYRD
Source text: Transient Transfection of Eukaryotic Cells to Evaluate the Agonist Activity of PPARα Ligands (II Method)
An alternative transactivation system, which differs mainly in the way the receptor is positioned onto the DNA, and depending on how the event of ligand binding is translated into transcriptional activation, was used.
In this model eukaryotic cells were transiently transfected with an expression vector encoding a fusion protein between the DNA binding domain (DBD) of the yeast Gal4 transcription factor and the ligand binding domain (LBD) of the PPARα (Gal4DBD/PPARαLBD). The reporter vector containing 5 copies of the high affinity binding site for Gal4 (named UAS, upstream activating sequence) upstream of a strong viral promoter linked to the reporter gene chloramphenicol acetyltransferase (CAT), was co-transfected. This model offered some advantages, the most important of which was the absence of interference by endogenous receptors.
Besides expression and reporter vectors, cells were transfected with a control vector pCH110 that encodes the β-galactosidase enzyme to correct for differences in transfection efficiency.
A monkey kidney fibroblast cell line (COS-7) was used. Cells were co-transfected with the plasmid carrying the gene-reporter, the expression plasmid encoding the fusion protein Gal4DBD/PPARαLBD, and the control vector pCH110. Cells were then treated with increasing concentrations of test compounds and the CAT activity was measured. Untreated cells were used as control.
Monkey kidney fibroblasts (COS-7) were routinely grown in DMEM (Dulbecco's modified Eagle's medium) supplemented with 3.7 g/l sodium bicarbonate, 4 mM L-glutamine, 4.5 g/l glucose, 1 mM sodium piruvate and 10% v/v foetal bovine serum, in the presence of streptomycin 100 μg/ml and penicillin 100 U/ml.
COS-7 cells were transiently transfected by using the multi-component lipid-based FuGENE6 Transfection Reagent that complexes with and transports DNA into the cells during transfection. Cells were seeded at 1.2×10^5 cells/well, in 12-well plates, and cultured overnight at 37° C. in a 5% v/v carbon dioxide atmosphere. Two hours before transfection the culture medium was replaced by fresh serum-free medium and then transfection was performed with FuGENE6 Transfection Reagent according to the instructions of the manufacturer. Briefly, the transfection mixture containing (for each well) 0.8 μg of the expression vector, 1.6 μg of the reporter vector, 0.8 μg of the control vector and 9 μl of FuGENE6 Transfection Reagent was added directly to the cells in the presence of serum-free medium. After 5 hours the transfection medium was replaced by 1 ml of the complete culture medium with or without the test molecules at 3 different concentrations (2, 20 and 100 μM). 2 μM Wy-14,643, a known PPARα ligand, was used as positive control.
After 48 h, the cells were washed twice with 1 ml phosphate buffer (PBS) and then harvested by scraping them in TEN buffer (Tris [hydroxymethyl] aminomethane 10 mM pH 8, ethylenediamine tetraacetic acid 1 mM, pH 8, sodium chloride 0.1 M). Following centrifugation at room temperature, for 3 min at 1000 revs per minute (rpm), cells were resuspended with 60 μl of Lysis buffer (0.25M Tris-HCl, pH 8) and lysed by three rapid freeze/thaw cycles (three 5-minute cycles). Cell debris was then removed by centrifugating at 4° C., for 15 min at 15.000 revs per minute (rpm),. Glycerol (final 10% v/v) and β-mercaptoethanol (final 5 mM) were then added (final volume 75 μl) and the cell extracts were stored at −80° C. until assayed.
The CAT activity assay was performed as follows: 20 μl of cell lysate (pre-warmed at 65° C. for 10 min to deactivate internal deacetylase enzymatic activity) were added to 10 μl of 3.5 mg/ml n-butirryl-CoA, 5 μl ([…]) of [14C]-chloramphenicol and 65 μl of distilled H20 and incubated 2 h at 37° C. Reaction was blocked by adding 200 μl of the solution xylene/2,6,10,14 tetramethyl-pentadecane (in a 1:2 v/v mixture). […]

[3] = system: hAPO A I transgenic mice; assay: Plasma lipid parameters in hAPO A I transgenic mice; type: in vivo; conditions: 16 days; for P-triglycerides / P-hdl-cholesterol: post-absorptive state; for P-triglycerides: control 75 ± 6; for P-hdl-cholesterol: control 163 ± 6
Description: ST2518, fenofibrate and rosiglitazone were administered by gavage for 16 days, and plasma (p) parameters were evaluated in post-absorptive state.

[4] = system: standard diet-fed c57bl/6j mice; assay: Hypolipidemic activity in standard diet-fed c57bl/6j mice; type: in vivo; conditions: for Triglycerides (plasma): 15 days, post-absorptive state, control 53.8 ± 4.2
Description: Standard Diet-Fed c57bl/6j Mice
ST2518 was evaluated in comparison with fenofibrate also in c57b1/6j mice fed with standard diet (Table 5).

[5] = system: high-cholesterol diet-fed CD-1 mice; assay: Hypolipidemic activity in high-cholesterol diet-fed CD-1 mice; type: in vivo; conditions: 16 days; for P-Cholesterol / P-triglycerides: post-absorptive state; for P-Cholesterol: control 350 ± 28; for P-triglycerides: control 49 ± 3
Description: High-Cholesterol Diet-Fed CD-1 Mice
ST2518, fenofibrate, rosiglitazone and pioglitazone (PPARγ agonists) were administered by gavage, for 16 days, to CD-1 mice fed with high-cholesterol diet, and plasma parameters were evaluated in post-absorptive state.

SMILES: COC(=O)C(C)(C)Sc1ccc(OC(=O)NCc2ccc(OC)cc2)cc1 [ST2031, methyl 2-[4-[[(4-methoxybenzyl)carbamoyl]oxy]phenylthio]isobutyrate]
- melting point: 64 to 65 °C
- Increase in HDL/cholesterol levels (%) ([1]; oral twice daily, dose equivalent to 24 mg of ST1929, 10 days): +51 ▴ %

- activation at 2 µM ([2]; 2 μM): 85.7%
- activation at 20 µM ([2]; 20 μM): 288%
- activation at 100 µM ([2]; 100 μM): 231%
- melting point: 81 to 82 °C
SMILES: COC(=O)C(C)(C)Sc1cccc(OCc2ccc(-c3ccc([N+](=O)[O-])cc3)o2)c1 [ST2501, methyl 2-[3-[5-(4-nitrophenyl)furfuryl-oxy]phenylthio]isobutyrate]

- melting point: 105 to 106 °C
SMILES: CC(C)(Sc1cccc(OCCc2ccc(Cl)cc2)c1)C(=O)O [ST2518, 2-[3-[2-(4-chlorophenyl)ethoxy]phenylthio]-2-methylpropanoic acid]
- P-triglycerides ([3]; 25 mg/kg/bid by gavage): 36 ± 3 δ mg/dl
- P-hdl-cholesterol ([3]; 25 mg/kg/bid by gavage): 252 ± 18 δ mg/dl
- effect on HDL-cholesterol (in words) ([3]; gavage): increased HDL-cholesterol more than fenofibrate
- effect on triglyceride levels (in words) ([3]; gavage): effective in reducing triglyceride levels
- Triglycerides (plasma) ([4]; 5 mg/kg/bid by gavage): 29.4 ± 3.0 Δ mg/dl
- Triglycerides (plasma) ([4]; 15 mg/kg/bid by gavage): 29.5 ± 3.4 Δ mg/dl
- Triglycerides (plasma) ([4]; 25 mg/kg/bid by gavage): 24.6 ± 2.0 Δ mg/dl
- effect on plasma triglyceride levels (in words) ([4]; treatment for 15 days, standard diet): significantly reduced plasma triglyceride levels to a higher extent than fenofibrate and muraglitazar
- Increase in HDL-cholesterol levels (%) ([1]; further experiment, oral twice daily 14 days, dose equimolar to 25 mg/kg of ST2195, 8 hours after last treatment): +46Δ %
- P-Cholesterol ([5]; 25 mg/Kg/bid by gavage): 200 ± 29 Δ mg/dL
- effect on plasma-cholesterol and triglyceride levels (in words) ([5]; gavage, high-cholesterol diet): significantly reduced plasma-cholesterol and triglyceride levels

SMILES: CC(C)OC(=O)C(C)(C)Oc1ccc(C(=O)c2ccc(Cl)cc2)cc1 [Fenofibrate, reference compound]
- P-triglycerides ([3]; 26 mg/kg/bid by gavage): 78 ± 6 mg/dL
- Triglycerides (plasma) ([4]; 25 mg/kg/bid by gavage): 38.0 ± 2.9 Δ mg/dl
- Triglycerides (plasma) ([4]; 75 mg/kg/bid by gavage): 34.4 ± 2.7 Δ mg/dl
- Triglycerides (plasma) ([4]; 125 mg/kg/bid by gavage): 36.0 ± 1.2 Δ mg/dl
- Increase in HDL/cholesterol levels (%) ([1]; 24.7 mg/kg, 25 days): +18%
- Increase in HDL/cholesterol levels (%) ([1]; second experiment, 24.7 mg/kg, 16 days): +56[…] %
- P-triglycerides ([5]; 26 mg/Kg/bid by gavage): 43 ± 3 mg/dL
- P-Cholesterol ([5]; 26 mg/Kg/bid by gavage): 308 ± 18 mg/dL

SMILES: CCc1ccc(CCOc2ccc(CC3SC(=O)NC3=O)cc2)nc1 (stereo not shown) [pioglitazone]
- P-triglycerides ([5]; 20 mg/Kg/bid by gavage): 43 ± 4 mg/dL
- P-Cholesterol ([5]; 20 mg/Kg/bid by gavage): 345 ± 27 mg/dL

- melting point: 41.5 to 42.5 °C
SMILES: COC(=O)C(C)(C)Sc1cccc(O)c1 [ST2047, methyl 2-(3-hydroxyphenylthio)isobutyrate]

SMILES: COc1ccc(OC(=O)N(CC(=O)O)Cc2ccc(OCCc3nc(-c4ccccc4)oc3C)cc2)cc1 [Muraglitazar, reference compound]
- Triglycerides (plasma) ([4]; 5 mg/kg/bid by gavage): 45.6 ± 3.4 mg/dL

SMILES: CN(CCOc1ccc(CC2SC(=O)NC2=O)cc1)c1ccccn1 (stereo not shown) [rosiglitazone, reference compound]
- P-triglycerides ([3]; 5 mg/kg/bid by gavage): 74 ± 10 mg/dL
- P-hdl-cholesterol ([3]; 5 mg/kg/bid by gavage): 144 ± 18 mg/dL
- P-triglycerides ([5]; 5 mg/Kg/bid by gavage): 41 ± 3 mg/dL
- P-Cholesterol ([5]; 5 mg/Kg/bid by gavage): 354 ± 23 mg/dL
